Measured values: PubChem BioAssay AID1963965 (Molecular Pharmacology Branch, DTP, NCI, 2024)

Test system: 996289-038-R-J1-PDC spheroid viability
Assay: Anticancer human tumor 996289-038-R-J1-PDC patient-derived colon adenocarcinoma cell line growth inhibition [PI3K]
Settings: spheroids with HUVEC and MSC; for IC50: curve of first compound; for viability, T/C: stronger effect = lower value
Outline: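 Targeted small molecules plus PI3K inhibitors, half-log dose series from Cmax (default top 10 microM), were applied to heterotypic spheroids of cancer cells with HUVEC and MSCs. Viability indicated growth inhibition.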

[1] = second compound 0.0316 µM, first compound 0.0316 µM
[2] = second compound 0.0316 µM, first compound 0.1 µM
[3] = second compound 0.0316 µM, first compound 0.316 µM
[4] = second compound 0.0316 µM, first compound 1 µM
[5] = second compound 0.0316 µM, first compound 3.16 µM
[6] = second compound 0.0316 µM, first compound 10 µM
[7] = second compound 0.1 µM, first compound 0.0316 µM
[8] = second compound 0.1 µM, first compound 0.1 µM
[9] = second compound 0.1 µM, first compound 0.316 µM
[10] = second compound 0.1 µM, first compound 1 µM
[11] = second compound 0.1 µM, first compound 3.16 µM
[12] = second compound 0.1 µM, first compound 10 µM
[13] = second compound 0.316 µM, first compound 0.0316 µM
[14] = second compound 0.316 µM, first compound 0.1 µM
[15] = second compound 0.316 µM, first compound 0.316 µM
[16] = second compound 0.316 µM, first compound 1 µM
[17] = second compound 0.316 µM, first compound 3.16 µM
[18] = second compound 0.316 µM, first compound 10 µM
[19] = second compound 1 µM, first compound 0.0316 µM
[20] = second compound 1 µM, first compound 0.1 µM
[21] = second compound 1 µM, first compound 0.316 µM
[22] = second compound 1 µM, first compound 1 µM
[23] = second compound 1 µM, first compound 3.16 µM
[24] = second compound 1 µM, first compound 10 µM
[25] = second compound 3.16 µM, first compound 0.0316 µM
[26] = second compound 3.16 µM, first compound 0.1 µM
[27] = second compound 3.16 µM, first compound 0.316 µM
[28] = second compound 3.16 µM, first compound 1 µM
[29] = second compound 3.16 µM, first compound 3.16 µM
[30] = second compound 3.16 µM, first compound 10 µM
[31] = second compound 10 µM, first compound 0.0316 µM
[32] = second compound 10 µM, first compound 0.1 µM
[33] = second compound 10 µM, first compound 0.316 µM
[34] = second compound 10 µM, first compound 1 µM
[35] = second compound 10 µM, first compound 3.16 µM
[36] = second compound 10 µM, first compound 10 µM
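Also: spheroids exposed to compounds for seven days before viability read.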
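For viability, T/C in this document: luminescence used as a proxy for viable cell amount; percent viability relative to DMSO vehicle control as 100%.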

CC(C)NCC(C(=O)N1CCN(c2ncnc3c2C(C)CC3O)CC1)c1ccc(Cl)cc1 (stereo not drawn) + CC(Nc1ncnc2nc[nH]c12)c1cc2cccc(Cl)c2c(=O)n1-c1ccccc1
IC50 (second compound 0.0316 µM): > 10 µM | IC50 (second compound 0.1 µM): > 10 µM | IC50 (second compound 0.316 µM): > 10 µM | IC50 (second compound 1 µM): > 10 µM | IC50 (second compound 3.16 µM): > 10 µM | IC50 (second compound 10 µM): > 10 µM | viability, T/C [1]: 86.1% | viability, T/C [2]: 80.3% | viability, T/C [3]: 100% | viability, T/C [4]: 94.1% | viability, T/C [5]: 87.4% | viability, T/C [6]: 75.1% | viability, T/C [7]: 96.5% | viability, T/C [8]: 96.8% | viability, T/C [9]: 89.9% | viability, T/C [10]: 94.7% | viability, T/C [11]: 87.1% | viability, T/C [12]: 69.4% | viability, T/C [13]: 94.9% | viability, T/C [14]: 93.8% | viability, T/C [15]: 95.2% | viability, T/C [16]: 90% | viability, T/C [17]: 92.2% | viability, T/C [18]: 72.3% | viability, T/C [19]: 86.4% | viability, T/C [20]: 92.3% | viability, T/C [21]: 90.8% | viability, T/C [22]: 77.8% | viability, T/C [23]: 101% | viability, T/C [24]: 74.9% | viability, T/C [25]: 88.1% | viability, T/C [26]: 85% | viability, T/C [27]: 85.4% | viability, T/C [28]: 94.7% | viability, T/C [29]: 94.9% | viability, T/C [30]: 68.6% | viability, T/C [31]: 88.8% | viability, T/C [32]: 78.7% | viability, T/C [33]: 85.5% | viability, T/C [34]: 84.2% | viability, T/C [35]: 101% | viability, T/C [36]: 56.2%

CC(=O)c1c(C)c2cnc(Nc3ccc(N4CCNCC4)cn3)nc2n(C2CCCC2)c1=O + CC(Nc1ncnc2nc[nH]c12)c1cc2cccc(Cl)c2c(=O)n1-c1ccccc1
IC50 (second compound 0.0316 µM): > 0.1 µM | IC50 (second compound 0.1 µM): > 0.1 µM | IC50 (second compound 0.316 µM): > 0.1 µM | IC50 (second compound 1 µM): > 0.1 µM | IC50 (second compound 3.16 µM): > 0.1 µM | IC50 (second compound 10 µM): > 0.1 µM | viability, T/C (second compound 0.0316 µM, first compound 0.000316 µM): 104% | viability, T/C (second compound 0.0316 µM, first compound 0.001 µM): 96.3% | viability, T/C (second compound 0.0316 µM, first compound 0.00316 µM): 93.2% | viability, T/C (second compound 0.0316 µM, first compound 0.01 µM): 92% | viability, T/C [1]: 99.2% | viability, T/C [2]: 84.2% | viability, T/C (second compound 0.1 µM, first compound 0.000316 µM): 96.4% | viability, T/C (second compound 0.1 µM, first compound 0.001 µM): 97.5% | viability, T/C (second compound 0.1 µM, first compound 0.00316 µM): 101% | viability, T/C (second compound 0.1 µM, first compound 0.01 µM): 102% | viability, T/C [7]: 107% | viability, T/C [8]: 90.1% | viability, T/C (second compound 0.316 µM, first compound 0.000316 µM): 93.8% | viability, T/C (second compound 0.316 µM, first compound 0.001 µM): 105% | viability, T/C (second compound 0.316 µM, first compound 0.00316 µM): 102% | viability, T/C (second compound 0.316 µM, first compound 0.01 µM): 97.7% | viability, T/C [13]: 108% | viability, T/C [14]: 86.7% | viability, T/C (second compound 1 µM, first compound 0.000316 µM): 106% | viability, T/C (second compound 1 µM, first compound 0.001 µM): 102% | viability, T/C (second compound 1 µM, first compound 0.00316 µM): 90.3% | viability, T/C (second compound 1 µM, first compound 0.01 µM): 95.2% | viability, T/C [19]: 92.4% | viability, T/C [20]: 89.8% | viability, T/C (second compound 3.16 µM, first compound 0.000316 µM): 102% | viability, T/C (second compound 3.16 µM, first compound 0.001 µM): 91.3% | viability, T/C (second compound 3.16 µM, first compound 0.00316 µM): 88.4% | viability, T/C (second compound 3.16 µM, first compound 0.01 µM): 95.9% | viability, T/C [25]: 103% | viability, T/C [26]: 84.5% | viability, T/C (second compound 10 µM, first compound 0.000316 µM): 87.5% | viability, T/C (second compound 10 µM, first compound 0.001 µM): 84.4% | viability, T/C (second compound 10 µM, first compound 0.00316 µM): 88.2% | viability, T/C (second compound 10 µM, first compound 0.01 µM): 86.7% | viability, T/C [31]: 104% | viability, T/C [32]: 72.7%

CNC(=O)c1ccc(N2C(=S)N(c3ccc(C#N)c(C(F)(F)F)c3)C(=O)C2(C)C)cc1F + Cc1nc(NC(=O)N2CCCC2C(N)=O)sc1-c1ccnc(C(C)(C)C(F)(F)F)c1
IC50 (second compound 0.0316 µM): > 10 µM | IC50 (second compound 0.1 µM): > 10 µM | IC50 (second compound 0.316 µM): > 10 µM | IC50 (second compound 1 µM): > 10 µM | IC50 (second compound 3.16 µM): > 10 µM | IC50 (second compound 10 µM): < 0.0316 µM | viability, T/C [1]: 92% | viability, T/C [2]: 95.8% | viability, T/C [3]: 92.2% | viability, T/C [4]: 92.3% | viability, T/C [5]: 93.8% | viability, T/C [6]: 90.4% | viability, T/C [7]: 92.9% | viability, T/C [8]: 82.7% | viability, T/C [9]: 97.2% | viability, T/C [10]: 83.3% | viability, T/C [11]: 95.2% | viability, T/C [12]: 90.3% | viability, T/C [13]: 90.9% | viability, T/C [14]: 81% | viability, T/C [15]: 88.4% | viability, T/C [16]: 84.8% | viability, T/C [17]: 73.9% | viability, T/C [18]: 96.5% | viability, T/C [19]: 75.6% | viability, T/C [20]: 76.9% | viability, T/C [21]: 69.7% | viability, T/C [22]: 79.9% | viability, T/C [23]: 80.7% | viability, T/C [24]: 70.8% | viability, T/C [25]: 65.5% | viability, T/C [26]: 64.7% | viability, T/C [27]: 58.9% | viability, T/C [28]: 52.4% | viability, T/C [29]: 61.5% | viability, T/C [30]: 51.3% | viability, T/C [31]: 39.9% | viability, T/C [32]: 46.9% | viability, T/C [33]: 49.6% | viability, T/C [34]: 38.9% | viability, T/C [35]: 48.3% | viability, T/C [36]: 36.8%

C[C@@H](NC(=O)c1ncnc(N)c1Cl)c1ncc(C(=O)Nc2cc(C(F)(F)F)c(Cl)cn2)s1 + Cc1nc(NC(=O)N2CCCC2C(N)=O)sc1-c1ccnc(C(C)(C)C(F)(F)F)c1
IC50 (second compound 0.0316 µM): > 10 µM | IC50 (second compound 0.1 µM): > 10 µM | IC50 (second compound 0.316 µM): > 10 µM | IC50 (second compound 1 µM): > 10 µM | IC50 (second compound 3.16 µM): > 10 µM | IC50 (second compound 10 µM): < 0.0316 µM | viability, T/C [1]: 89.5% | viability, T/C [2]: 89.8% | viability, T/C [3]: 124% | viability, T/C [4]: 114% | viability, T/C [5]: 113% | viability, T/C [6]: 128% | viability, T/C [7]: 99.3% | viability, T/C [8]: 100% | viability, T/C [9]: 103% | viability, T/C [10]: 104% | viability, T/C [11]: 109% | viability, T/C [12]: 105% | viability, T/C [13]: 80.5% | viability, T/C [14]: 88.6% | viability, T/C [15]: 90.8% | viability, T/C [16]: 93.9% | viability, T/C [17]: 109% | viability, T/C [18]: 92.4% | viability, T/C [19]: 64.3% | viability, T/C [20]: 72.8% | viability, T/C [21]: 73.5% | viability, T/C [22]: 81.1% | viability, T/C [23]: 102% | viability, T/C [24]: 70.8% | viability, T/C [25]: 62.1% | viability, T/C [26]: 68.3% | viability, T/C [27]: 60.3% | viability, T/C [28]: 67.7% | viability, T/C [29]: 68.7% | viability, T/C [30]: 54.3% | viability, T/C [31]: 40.6% | viability, T/C [32]: 47.1% | viability, T/C [33]: 54.3% | viability, T/C [34]: 44.3% | viability, T/C [35]: 46.9% | viability, T/C [36]: 39.9%
